Data set [1] relates to porcine liver CES. In words: In vitro CES inhibition (4-NPA substrate). Type of data set: biochemical. The note with it: compound 20 µM, n.a. = not active. An excerpt:
(§1) Assessment of the esterase profile of new potential anti-AD molecules enables the estimation of both the primary pharmacological effects of the tested compounds—their inhibition of AChE and BChE—and their possible unwanted side effect—inhibition of CES, which hydrolyzes numerous ester-containing drugs. For the esterase profile evaluation, human erythrocyte AChE, equine serum BChE, and porcine liver CES were used. These sources of BChE and CES were employed because of their relatively low cost, high sequence identity to human enzymes, and the exploratory character of this work.
(§2) Chromophore absorbances were measured with a FLUOStar Optima microplate reader (BMG Labtech, Ortenberg, Germany). […] Initially, we used a single concentration of 20 µM for all compounds.

Another data set concerns the target T1, EeAChE PAS (Electrophorus electricus, UniProt O42275).
T1 construct: The enzyme was electric eel AChE (EeAChE type VI-S, lyophilized powder, Sigma-Aldrich); purchased Sigma-Aldrich type VI-S; host or cells: electric eel (tissue-derived)
In kind it is binding. Conditions: compound 20 µM; EeAChE 7 µM; propidium iodide 8 µM. The source says: This method is widely used as a screening approach to assess the potential ability of compounds to block AChE-induced β-amyloid aggregation. This is because when the compounds bind to the AChE PAS, they prevent the binding of β-amyloid, thereby inhibiting its aggregation.
The enzyme was electric eel AChE (EeAChE type VI-S, lyophilized powder, Sigma-Aldrich). We selected this source of AChE for consistency with our other reports and because of the purity, specific activity, and lower cost compared to human AChE.
Propidium iodide (final concentration 8 μM) was then added for a further 15 min incubation, and the fluorescence spectrum was taken (530 nm excitation and 600 nm emission) using a FLUOStar Optima microplate reader. The same concentration of propidium iodide in the Tris buffer was used as the blank. Triplicate determinations were recorded and the results were calculated via the following equation:% Displacement = 100 − (IFAChE+ Propidium + inhibitor/IFAChE + Propidium) × 100, where IFAChE + Propidium = fluorescence intensity of propidium iodide associated with AChE in the absence of the test compound (taken as 100%), and IFAChE + Propidium + inhibitor = fluorescence intensity of propidium iodide associated with AChE in the presence of the test compound.

In another data set the target is T2, human erythrocyte AChE (Homo sapiens, UniProt P22303).
T2 construct: human erythrocyte AChE, equine serum BChE, and porcine liver CES were used; purchased Sigma-Aldrich; host or cells: human erythrocytes (tissue-derived)
T2 sequence (P22303 32-617 isoform P22303-2 limits assumed): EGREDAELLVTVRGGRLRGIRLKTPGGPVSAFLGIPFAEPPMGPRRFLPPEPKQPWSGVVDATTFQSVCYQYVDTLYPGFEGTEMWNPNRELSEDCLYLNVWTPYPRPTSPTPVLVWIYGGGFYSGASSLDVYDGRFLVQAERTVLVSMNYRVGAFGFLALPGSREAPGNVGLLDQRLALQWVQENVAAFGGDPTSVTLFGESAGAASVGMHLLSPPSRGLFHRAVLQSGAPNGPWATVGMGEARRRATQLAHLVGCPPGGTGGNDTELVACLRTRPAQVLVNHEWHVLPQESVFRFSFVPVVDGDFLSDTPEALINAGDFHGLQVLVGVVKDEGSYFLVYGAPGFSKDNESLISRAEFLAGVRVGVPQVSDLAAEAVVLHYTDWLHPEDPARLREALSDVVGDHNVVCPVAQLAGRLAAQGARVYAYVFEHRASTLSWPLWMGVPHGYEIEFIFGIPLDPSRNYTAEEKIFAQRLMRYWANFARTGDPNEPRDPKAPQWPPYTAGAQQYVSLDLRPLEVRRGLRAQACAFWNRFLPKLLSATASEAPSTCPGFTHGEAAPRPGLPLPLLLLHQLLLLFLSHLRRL
In words: biochemical. The note with it: mean ± SEM, n = 3, read-out: Inhibitory activity against AChE, IC50.
Text: as §1, §2

Data set [2] concerns the target T3, equine serum BChE (Equus caballus, UniProt P81908).
T3 construct: human erythrocyte AChE, equine serum BChE, and porcine liver CES were used; purchased Sigma-Aldrich; host or cells: equine serum (tissue-derived)
As to the kind of experiment: biochemical. Conditions: mean ± SEM, n = 3, read-out: Inhibitory activity against BChE, IC50.
Text: as §1, §2

Another data set has as its target β-amyloid (1–42) (Aβ42) (Homo sapiens, UniProt P05067). As to the kind of experiment: Inhibition of Aβ42 self-aggregation (thioflavin T). Conditions: Aβ42 50 µM; compound 100 µM; 24 h, 37 °C; thioflavin T; read-out: Inhibition of Aβ42 Self-Aggregation. In kind it is biochemical. As for the experimental part:
The inhibitory activity of tested hybrids against the self-aggregation of Aβ42 was determined in vitro using the thioflavin T (ThT) fluorimetric assay. According to [84], the ThT test is ideal for preliminary screening of inhibitors of Aβ42 self-aggregation, as it enables the quantitative testing of large numbers of compounds within a relatively short time.
The influence of the inhibitory effect of the test compounds toward Aβ42 self-aggregation was determined using the thioflavin T (ThT) fluorescence method with minor modifications. This assay is based on a specific interaction between the fluorescent dye thioflavin T that binds to the β-sheets of assembled amyloid fibrils leading to a significant increase in fluorescence signal. Therefore, the decrease in ThT fluorescence correlates with the ability of the studied compounds to inhibit the formation of amyloid aggregates.
One mg of lyophilized HFIP-pretreated Aβ42 from BACHEM (Bubendorf, Switzerland) was dissolved in DMSO to obtain a stable initial solution ([Aβ42] = 500 μM); then it was aliquoted and stored at −20 °C.
For the measurement of Aβ42 self-aggregation and amyloid fibril inhibition studies by the tested compounds, aliquots of 500 μM Aβ42 stock solution were diluted in 215 mM Na-phosphate buffer pH = 8.0 to a final concentration of 50 μM Aβ42. Then the samples were incubated for 24 h at 37 °C without stirring in the absence (base level of Aβ42 self-aggregation, control) or presence of the test compounds. Myricetin and propidium iodide were used as reference compounds (positive controls). All compounds were used in a concentration of 100 µM. To quantify Aβ42 fibril formation, after incubation, 5 μM ThT in 50 mM glycine-NaOH buffer pH 8.5 was added to the solutions to a final concentration of 4 μM ThT and the fluorescence was measured at 440 nm (excitation) and 485 nm (emission). Analyses were performed with a FLUOStar Optima microplate reader (LabTech, Ortenberg, Germany). The blanks consisted of 215 mM Na-phosphate buffer, pH = 8.0, 20% (v/v) DMSO or test compounds, respectively. Each assay was run in triplicate.

The next data set is described as follows: FRAP assay. The note with it: Trolox equivalents; 60 min, 37 °C; n.a. = not active. As for the experimental part:
The Ferric Reducing Antioxidant Power (FRAP) test involves reduction of the ferric 2,4,6-tripyridyl-s-triazine complex [Fe(TPTZ)2]^3+ to an intense-blue ferrous complex [Fe(TPTZ)2]^2+ [92], as previously reported. Results are given as Trolox Equivalents (TE).
The FRAP (ferric reducing antioxidant power) assay proposed by Benzie and Strain [92] was modified to be performed in 96-well microplates as described in detail in [53]. The FRAP reagent contained 2.5 mL of 10 mM TPTZ (2,4,6-tris(2-pyridyl)-s-triazine, Sigma-Aldrich) solution in 40 mM HCl, 2.5 mL of 20 mM FeCl3 (Sigma-Aldrich) in distilled water and 25 mL of 0.3 M acetate buffer (pH 3.6). Aliquots of 10 µL of the test compound dissolved in DMSO (0.5 mM) were placed in quadruplicate. Absorbance was measured at a wavelength of 593 nm after 60 min incubation at 37 °C. In each case, Trolox was used as a reference compound to obtain the standard curve. The AO activity was calculated with respect to the activity of Trolox and expressed as Trolox equivalents (TE)—the values calculated as the ratio of the concentrations of Trolox and the test compound resulting in the same effect on ferric reducing activity.

A short description of data set [3]: Metal chelation by UV-Vis spectroscopy, Cu2+. The note with it: ethanol, 25 °C; compound and metal 40 μM; difference spectra; two bands per compound.
The nature of data set [4]: ABTS radical cation scavenging assay. The note with it: 1 h incubation. More on the design: key to ABTS^•+ Scavenging Activity, TEAC: TEAC: ratio of compound slope to Trolox slope (Trolox equivalents). As for the experimental part:
In the ABTS assay, the dark-green ABTS cation-radical (ABTS^•+) is quenched by interaction with AOs. The consequent decrease in absorbance is followed spectrophotometrically per the previously described method.
Radical scavenging activity of the compounds was assessed using the ABTS radical cation (ABTS^•+) decolorization assay with some modifications. ABTS (2,2′-azinobis-(3-ethylbenzothiazoline-6-sulfonic acid) was purchased from Tokyo Chemical Industry Co., Ltd. (Tokyo, Japan); potassium persulfate (dipotassium peroxodisulfate), Trolox (6-hydroxy-2,5,7,8-tetramethylchroman-2-carboxylic acid), and HPLC-grade ethanol and DMSO were obtained from Sigma-Aldrich (Saint Louis, MO, USA). Aqueous solutions were prepared using deionized water. All tested compounds were dissolved in DMSO.
The solution of cation radical ABTS^•+ was produced by incubation of an aqueous solution of 7 mM ABTS and 2.45 mM potassium persulfate solution in equal quantities for 12–16 h at room temperature in the dark. Radical scavenging capacity of the compounds was analyzed by mixing 10 μL of compound with 240 μL of ABTS^•+ working solution in ethanol (100 μM final concentration). The reaction was monitored for an hour at 30 °C with an interval of 10 min. Data are given for 1 h of incubation of compounds with ABTS^•+. The reduction in absorbance was measured spectrophotometrically at 734 nm using an xMark microplate UV/VIS spectrophotometer (Bio-Rad, Hercules, CA, USA). Ethanol blanks were run in each assay. Values were obtained from five replicates of each sample and three independent experiments.
The standard AO Trolox was used as a reference compound. AO capacity as Trolox equivalent (TEAC) values was determined as the ratio between the slopes obtained from the linear correlation of the ABTS radical absorbance with the concentrations of tested compounds and Trolox. Ascorbic acid was used as a positive control. […]. The compounds were tested in the concentration range of 0.5–100 µM.

Data set [5] deals with T3, equine serum BChE. Conditions: compound 20 µM; cited from earlier work.
The conditions of data set [6]: cited from earlier work.
For data set [7], the system named is porcine liver CES. The note with it: compound 20 µM; cited from earlier work.

Where two headings read alike, the source gives them in different places.

T3 sequence (P81908 whole entry): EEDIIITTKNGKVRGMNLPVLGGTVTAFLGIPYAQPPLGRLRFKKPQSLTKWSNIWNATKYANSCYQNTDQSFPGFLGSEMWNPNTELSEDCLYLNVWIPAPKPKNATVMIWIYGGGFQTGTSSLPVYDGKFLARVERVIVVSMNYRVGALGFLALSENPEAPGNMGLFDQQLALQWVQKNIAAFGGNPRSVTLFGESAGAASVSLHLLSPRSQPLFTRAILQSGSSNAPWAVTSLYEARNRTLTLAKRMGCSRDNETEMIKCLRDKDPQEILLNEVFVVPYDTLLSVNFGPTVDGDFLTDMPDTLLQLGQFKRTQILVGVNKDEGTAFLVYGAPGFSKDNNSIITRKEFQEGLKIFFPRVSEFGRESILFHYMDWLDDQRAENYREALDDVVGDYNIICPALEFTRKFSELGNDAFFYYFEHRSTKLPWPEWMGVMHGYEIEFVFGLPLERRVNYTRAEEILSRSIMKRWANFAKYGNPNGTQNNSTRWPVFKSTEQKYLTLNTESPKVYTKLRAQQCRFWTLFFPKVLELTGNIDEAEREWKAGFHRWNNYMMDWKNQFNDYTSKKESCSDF
T1 sequence (O42275 24-633): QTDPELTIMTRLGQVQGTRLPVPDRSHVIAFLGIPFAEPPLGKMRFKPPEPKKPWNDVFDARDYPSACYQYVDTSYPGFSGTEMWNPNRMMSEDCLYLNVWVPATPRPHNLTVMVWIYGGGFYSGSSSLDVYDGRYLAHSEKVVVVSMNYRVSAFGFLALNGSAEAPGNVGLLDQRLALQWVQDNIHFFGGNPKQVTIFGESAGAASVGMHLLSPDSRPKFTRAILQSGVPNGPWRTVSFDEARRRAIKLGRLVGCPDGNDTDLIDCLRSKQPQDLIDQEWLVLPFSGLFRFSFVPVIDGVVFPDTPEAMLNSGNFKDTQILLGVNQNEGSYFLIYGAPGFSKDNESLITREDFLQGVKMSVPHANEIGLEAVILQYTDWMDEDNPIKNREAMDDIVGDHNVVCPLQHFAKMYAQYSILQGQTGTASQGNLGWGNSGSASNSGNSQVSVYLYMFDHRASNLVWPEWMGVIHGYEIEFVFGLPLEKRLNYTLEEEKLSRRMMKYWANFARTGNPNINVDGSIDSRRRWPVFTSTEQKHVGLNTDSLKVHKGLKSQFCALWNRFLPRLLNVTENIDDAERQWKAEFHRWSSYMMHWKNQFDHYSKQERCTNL
β-amyloid (1–42) (Aβ42), sequence (P05067 672-713 limits assumed): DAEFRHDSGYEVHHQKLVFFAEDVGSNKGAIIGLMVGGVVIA

For orientation: IC50 means the concentration at which inhibition is half-maximal. The term inhibition denotes how much of the control response was suppressed. For `COc1ccccc1C(=O)NCCCCCCNc1c2c(nc3ccccc13)CCCC2` [6b], in the data set on porcine liver CES [1], the “Inhibitory activity against CES, inhibition at 20 µM” value (“Inhibitory activity against CES” for short) is 8.0 ± 1.3%. On EeAChE PAS, the “Propidium Displacement from EeAChE PAS” value was 12.5 ± 0.8%. Further, the IC50 worked out at 0.646 ± 0.041 µM at human erythrocyte AChE and 0.0377 ± 0.0031 µM on equine serum BChE [2]. On β-amyloid (1–42) (Aβ42), the inhibition at 100 µM came out at 30.8 ± 2.1%. Besides, the “FRAP, TE” value in “FRAP assay” is recorded as 0.02. Moreover, the “Shift of Absorbance, Cu(II)” value in [3] was found to be 254 nm.
As to `Oc1ccccc1/C=N/CCCCCCNc1c2c(nc3ccccc13)CCCC2` [10b], in the data set on porcine liver CES [1], the “Inhibitory activity against CES” value was 17.9 ± 0.8%. Further, the IC50 in [4] (50% reduction of ABTS radical cation) was 31.8 ± 1.6 µM; on human erythrocyte AChE, 0.103 ± 0.006 µM; at equine serum BChE [2], 0.0354 ± 0.0017 µM. The “ABTS^•+ Scavenging Activity, TEAC” value in data set [4] (Trolox equivalent, n.a. = not active) is on record as 0.47 ± 0.04. Further, the “Propidium Displacement from EeAChE PAS” value at EeAChE PAS stood at 18.2 ± 1.4%. For the same compound, the inhibition at 100 µM on β-amyloid (1–42) (Aβ42) came to 67.9 ± 5.4%. Besides, the “FRAP, TE” value in “FRAP assay” is 0.03. The “Shift of Absorbance, Cu(II)” value in data set [3] was found to be 255 nm.
Turning to N-hexylsalicylamide, at equine serum BChE [5], the “Inhibitory activity against BChE, inhibition at 20 µM” value is on record as 10.6 ± 0.8%. The IC50 in data set [6] (50% reduction of ABTS radical cation, read-out: ABTS^•+ Scavenging Activity, IC50) was 46.5 ± 2.3 µM. Moreover, the “ABTS^•+ Scavenging Activity, TEAC” value in [6] (Trolox equivalent) is 0.39 ± 0.04. Besides, the “Inhibitory activity against CES” value with porcine liver CES [7] is on record as 4.9 ± 1.0%.
